The test has as its system rpe1Δ (YKB4795). Description: dot assay on YPD agar plates. Type of test: cell-based, S. cerevisiae. Conditions: 1 mM coniferyl aldehyde, 48 hr at 30° C. The protocol:
Wild type (BY4741) along with zwf1Δ (YKB4794), sol2Δ (YKB4847), sol3Δ (YKB4848), gnd1Δ (YKB4797), gnd2Δ (YKB4850), rpe1Δ (YKB4795), tal1Δ (YKB4851) and tkl1Δ (YKB4796) deletion strains were grown to mid log phase in YPD medium prior to being diluted into fresh medium to an OD600of 0.1. Four 10-fold serial dilutions were spotted onto YPD agar plates containing either 1 mM coniferyl aldehyde (1 mM CA) or no coniferyl aldehyde (0 mM CA). Plates were incubated for 48 hr at 30° C. and images are representative of three biological replicates.

With `COc1cc(C=CC=O)ccc1O` [coniferyl aldehyde, 4-hydroxy-3-methoxycinnamaldehyde], the “growth of rpe1Δ on agar plates” value is given as “no growth”.

Source of the values: patent US11555210B2, “Microbe having increased tolerance to phenolic fermentation inhibitors” (University of Ottawa, priority 2018, dated 2023).
